In ChEMBL document CHEMBL4616702 (ACS Med Chem Lett, 2020):

What was measured:
[1] = Half life in rat liver microsomes in presence of NADPH by LC/MS/MS metho; assay type: ADME, Microsome; conditions: for t1/2: microsomes; for half-life: liver microsomes
[2] = Half life in human liver microsomes in presence of NADPH by LC/MS/MS method; assay type: ADME, Microsome
[3] = Half life in mouse liver microsomes in presence of NADPH by LC/MS/MS method; assay type: ADME, Microsome; conditions: for half-life: liver microsomes
[4] = AUC (0 to 24 hrs) in Balb/c mouse at 10 mg/kg, po; assay type: ADME, organism-based; parameters: dose 10 mg/kg, time < 24 hr, route oral; conditions: in vivo
[5] = Cmax in Balb/c mouse at 10 mg/kg, po; assay type: ADME, organism-based; parameters: dose 10 mg/kg, route oral; conditions: in vivo
[6] = Drug concentration in Balb/c mouse at 10 mg/kg, po measured upto 24 hrs; assay type: ADME, organism-based; conditions: in vivo, read-out: Drug uptake

Row | Compound | t1/2 [1] [h] | half-life [2] [h] | half-life [3] [h] | half-life [1] [h] | AUC(0-t) at 24 h [4] [µM·h] | Cmax [5] [µM] | concentration at 24 h [6] [µM] | t1/2 ([3]; microsomes) [h]
1 | C[C@H]1C[C@@H](C(=O)N2CC[C@@]3(S(=O)(=O)c4ccc(F)cc4)c4ccc(C(F)(C(F)(F)F)C(F)(F)F)cc4CC[C@@H]23)CCS1(=O)=O (stereo in doubt; 3) | > 2 | > 2 | > 2 | – | – | – | – | –
2 | C[C@H]1C[C@@H](C(=O)N2CC[C@@]3(S(=O)(=O)c4ccc(F)cc4)c4ccc(C(F)(C(F)(F)F)C(F)(F)F)cc4CC[C@@H]23)CCS1(=O)=O (stereo in doubt; 4) | 0.55 | – | – | – | – | – | – | 1.63
3 | C[C@H]1C[C@H](C(=O)N2CC[C@@]3(S(=O)(=O)c4cccc(F)c4)c4ccc(C(F)(C(F)(F)F)C(F)(F)F)cc4CC[C@@H]23)CC[C@H]1C(=O)O | – | > 2 | > 2 | > 2 | 72 | 12 | 0.78 | –
4 | O=C(N1CC[C@@]2(S(=O)(=O)c3ccc(F)cc3)c3ccc(C(F)(C(F)(F)F)C(F)(F)F)cc3CC[C@@H]12)C1(O)CCS(=O)(=O)CC1 | – | > 2 | > 2 | > 2 | – | – | – | –
5 | C[C@H]1C[C@H](C(=O)O)CC[C@H]1C(=O)N1CC[C@@]2(S(=O)(=O)c3cccc(F)c3)c3ccc(C(F)(C(F)(F)F)C(F)(F)F)cc3CC[C@@H]12 | – | > 2 | > 2 | 1.78 | – | – | – | –

Second part, the molecule after the results:

Row | t1/2 [1] [h] | half-life [2] [h] | half-life [3] [h] | half-life [1] [h] | AUC(0-t) at 24 h [4] [µM·h] | Cmax [5] [µM] | concentration at 24 h [6] [µM] | t1/2 ([3]; microsomes) [h] | Compound
6 | – | > 2 | > 2 | > 2 | – | – | – | – | O=C(O)[C@H]1CC[C@H](C(=O)N2CC[C@@]3(S(=O)(=O)c4ccc(F)cc4)c4ccc(C(F)(C(F)(F)F)C(F)(F)F)cc4CC[C@@H]23)CC1
7 | – | > 2 | > 2 | 1.22 | 134 | 9 | 2.2 | – | C[C@@H]1C[C@H](C(=O)N2CC[C@@]3(S(=O)(=O)c4ccc(F)cc4)c4ccc(C(F)(C(F)(F)F)C(F)(F)F)cc4CC[C@@H]23)CC[C@H]1C(=O)O
8 | – | > 2 | > 2 | > 2 | – | – | – | – | C[C@@H]1C[C@H](C(=O)O)CC[C@H]1C(=O)N1CC[C@@]2(S(=O)(=O)c3ccc(F)cc3)c3ccc(C(F)(C(F)(F)F)C(F)(F)F)cc3CC[C@@H]12
